From patent US20210330713A1, “HUMAN HEPATOCYTES AND USES THEREOF” (ACCELERATED BIOSCIENCES CORP., priority 2014, published 2021)
Entries after “also recorded” stand apart in the source; their conditions may differ.

Tests used:
[1] = cited from earlier work
[2] = system: hTS cells; assay: Hepatocytic differentiation of hTS cells after DE stage; settings: dexamethasone 0.1 μM and oncostatin M 10 ng/ml added at 8 hr of bFGF induction, 4 days
[3] = target: T1, FGF receptor (FGFR) (Homo sapiens, UniProt P11362); assay: FGFR inhibitor block of bFGF-induced PI3K by immunoblotting; format: cell-based; settings: hTS cells, bFGF 10 ng/ml
T1 construct: endogenous in cells; host or cells: hTS cells (human trophoblast stem cells)
Protocol: (§1) For immunoblotting assay, cells were harvested into RIPA lysis solution (Millipore, Billerica, Mass.) supplemented with protease and phosphatase inhibitors (Roche). After electrophoresis of 30 μg lysates on polyacrylamide gels, electroblotting onto PDVF membranes (Millipore) was performed. After blocked by 5% non-fat milk in PBS at room temperature (1 hr), target protein was detected by using primary antibody. All membranes were incubated with chemiluminescent (Millipore) and imaging was captured by the ChemiDoc XRS system (Bio-RAD). Data were analyzed by AlphaEaseFC (version 4.0.0) system. For IP assay, Cell lysates of bFGF-treated hTS cells were collected. By incubation with protein G-agarose (Millipore) for 30 min, total protein (100 μg) was treated with specific primary antibody overnight listed in Table 1. After treating with protein G-agarose beads (2 hr), sample was washed three times with RIPA lysis buffer (Millipore), following by adding with protein loading dye and boiled for 5 min. […]
(§2) For immunoblotting assay, cells were harvested into RIPA lysis solution (Millipore, Billerica, Mass.) supplemented with protease and phosphatase inhibitors (Roche). […] After blocked by 5% non-fat milk in PBS at room temperature (1 hr), target protein was detected by using primary antibody. […] Data were analyzed by AlphaEaseFC (version 4.0.0) system. […]

[4] = system: CYP3A4; assay: Functional cytochrome p450 assay by qPCR, CYP3A4; settings: hepatocyte-like cells, rifampicin 25 μM + itraconazole 25 μM, 24 hr
[5] = system: CYP7A1; settings: hypercholesterolemic hamsters; cited from earlier work
[6] = system: hTS cells; assay: bFGF induction of DE differentiation in hTS cells, DE-associated markers over time; format: cell-based, human; settings: bFGF 10 ng/ml
Protocol: For immunoblotting assay, cells were harvested into RIPA lysis solution (Millipore, Billerica, Mass.) supplemented with protease and phosphatase inhibitors (Roche). After electrophoresis of 30 μg lysates on polyacrylamide gels, electroblotting onto PDVF membranes (Millipore) was performed. After blocked by 5% non-fat milk in PBS at room temperature (1 hr), target protein was detected by using primary antibody. All membranes were incubated with chemiluminescent (Millipore) and imaging was captured by the ChemiDoc XRS system (Bio-RAD). Data were analyzed by AlphaEaseFC (version 4.0.0) system. For IP assay, Cell lysates of bFGF-treated hTS cells were collected. By incubation with protein G-agarose (Millipore) for 30 min, total protein (100 μg) was treated with specific primary antibody overnight listed in Table 1. After treating with protein G-agarose beads (2 hr), sample was washed three times with RIPA lysis buffer (Millipore), following by adding with protein loading dye and boiled for 5 min. The sample was resolved by 8% SDS-PAGE and subjected to immunoblotting analysis.
(§3) Slides with cell culture was fixed for 30 min at room temperature in 95% (v/v) ethanol, washed three times in PBS and incubated with blocking buffer PBS containing 0.1% (wt/v) Triton X-100 (Sigma) and 5% (v/v) normal donkey serum (Millipore) for 60 min. Primary and secondary antibodies were diluted in blocking buffer. Primary antibody was incubated. After incubation with specific primary antibody in PBS at 4° C. (24 hr) or room temperature (2 hr), appropriate fluorescein isothiocyante (FITC, Invitrogen) or ALEXA FLUOR® 488, 594, and 647 (Invitrogen) or Dylight 488 and 594 (BioLegend) conjugated secondary antibody was added at room temperature (1 hr). After DAPI staining of nucleus (5 min), incubation with secondary antibody (1 hr) at room temperature, and washes, sample was mounted with 50% glycerol. Images were captured by confocal laser scanning microscopy (LSM700; Zeiss Z1 or Olympus FluoView 1000 confocal laser scanning microscope) or TissueFAXS system (TissueQnostics GmbH, Vienna, Austria). Data were analyzed by TissueQuest software.
This study was approved by the Institutional Review Board on Human Subjects Research and Ethics Committees (KMUHIRB-20140071). […] For DE differentiation, cells were carried out by a conditioned a-MEM media containing 10% FBS, 2-mercaptoethanol (1 mM), nicotinamide (10 mM), and bFGF (10 ng/ml) for 8 hr, according to the empirical studies (data not shown). […] Cells were harvested at 4-7 days for assay as indicated. Determination of stage-specific differentiation of lineages depends on the hepatic cell-associated markers in liver development.
as §3, with “Briefly, slides” for “Slides”, “DYLIGHT®” for “Dylight”, “glycerol.” for “glycerol. Images were captured by confocal laser scanning microscopy (LSM700; Zeiss Z1 or Olympus FluoView 1000 confocal laser scanning microscope) or TissueFAXS system (TissueQnostics GmbH, Vienna, Austria). Data were analyzed by TissueQuest software.”

[7] = system: PI3K/AKT/CREB1 signaling pathway; assay: bFGF-induced PI3K/AKT/CREB1 signaling by immunoblotting; format: cell-based, human; settings: bFGF 10 ng/ml, 4 hr induction, hTS cells
Protocol: as §1, §2

[8] = system: miR-124a; assay: miR-124a expression in hTS cells by qPCR; format: cell-based, human; settings: bFGF induction, DE stage
Source text: U6 snRNA (RNU6B; Applied Biosystems) served as an endogenous control.

T1 sequence (P11362 22-822): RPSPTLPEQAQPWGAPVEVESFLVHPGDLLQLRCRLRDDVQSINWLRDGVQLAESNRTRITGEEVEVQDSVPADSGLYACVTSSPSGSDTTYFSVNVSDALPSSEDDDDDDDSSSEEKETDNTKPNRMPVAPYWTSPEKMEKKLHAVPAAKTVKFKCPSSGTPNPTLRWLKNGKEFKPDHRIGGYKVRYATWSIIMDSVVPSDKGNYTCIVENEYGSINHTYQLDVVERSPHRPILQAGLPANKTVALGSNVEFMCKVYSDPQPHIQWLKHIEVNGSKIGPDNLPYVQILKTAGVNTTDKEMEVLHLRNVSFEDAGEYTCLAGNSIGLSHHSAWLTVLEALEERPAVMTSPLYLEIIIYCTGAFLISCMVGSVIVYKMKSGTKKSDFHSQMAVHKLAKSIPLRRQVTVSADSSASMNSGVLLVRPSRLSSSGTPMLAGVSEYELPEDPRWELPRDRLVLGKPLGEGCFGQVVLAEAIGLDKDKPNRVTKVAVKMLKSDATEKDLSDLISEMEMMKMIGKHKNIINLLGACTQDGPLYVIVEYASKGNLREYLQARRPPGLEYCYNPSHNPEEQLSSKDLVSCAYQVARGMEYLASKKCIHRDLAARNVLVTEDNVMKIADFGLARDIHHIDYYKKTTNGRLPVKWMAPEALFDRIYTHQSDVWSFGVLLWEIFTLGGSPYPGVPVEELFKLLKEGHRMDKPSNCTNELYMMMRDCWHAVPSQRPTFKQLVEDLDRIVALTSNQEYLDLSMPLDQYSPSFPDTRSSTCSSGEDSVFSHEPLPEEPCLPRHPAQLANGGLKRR

Molecule: ClC(Cl)(Cl)Cl [CCl4, carbon tetrachloride]
- half-live in blood [1]: 24 h

Molecule: C[C@@H]1C[C@H]2[C@@H]3CCC4=CC(=O)C=C[C@]4(C)[C@@]3(F)[C@@H](O)C[C@]2(C)[C@@]1(O)C(=O)CO [dexamethasone]
- differentiation to hepatocyte-like cells expressing hepatic markers [2]: resulted in the differentiation of hepatocyte-like cells

Molecule: COc1cc(OC)cc(-c2cc3cnc(N)nc3nc2NC(=O)NC(C)(C)C)c1 [PD166866]
- bFGF-induced activation of PI3K [3]: block

Molecule: CCC(C)n1ncn(-c2ccc(N3CCN(c4ccc(OCC5COC(Cn6cncn6)(c6ccc(Cl)cc6Cl)O5)cc4)CC3)cc2)c1=O (stereo not shown) [itraconazole]
- inducer-induced CYP3A4 mRNA in response to inhibitor [4]: reduced

Molecule: CC(=O)c1c(O)cc(O)cc1O [THA]
- CYP7A1 activity and mRNA expression [5]: promotes both CYP7A1 activity and mRNA expression
- plasma cholesterol and triglyceride [5]: reduce both plasma cholesterol and triglyceride

Molecule: bFGF: basic fibroblast growth factor, used at 10 ng/ml to induce DE differentiation of hTS cells
- SOX17 levels at peak ([6]; 2 hr, immunoblotting): 1.5 fold
- intensity of Mixl1, nadir lower than the native one ([6]; 4 hr, TissueFAX analysis): ~50%
- MIXL1 levels, nadir lower than the native one ([6]; 4 hr, immunoblotting): ~50%
- DE formation ([6]; 8 hr induction): efficiently yield DE; also recorded: rapidly differentiate hTS cells to DE stage
- FOXA2 highest levels ([6]; 8 hr, immunoblotting): 3 fold
- activation of the PI3K/AKT1/CREB1 signaling pathway [7]: induces activation
- time of peak miR-124a expression [8]: 4 h
